Laboratory results: US7468384B2, “Microbicidal composition” (Rohm and Haas Company, priority 2004, dated 2008)
Where two headings read alike, the source gives them in different places.

Tested on: S. aureus 6538
Test: Synergy test, microtiter plate high resolution MIC assay, bacterium
Assay type: cell-based
Conditions: for SI (calculated synergy index): S. aureus 6538, TSB
Source text: One measure of synergism is the industrially accepted method described by Kull, F. C.; Eisman, P. C.; Sylwestrowicz, H. D. and Mayer, R. L., in Applied Microbiology 9:538-541 (1961), using the ratio determined by the formula: Qa/QA+Qb/QB=Synergy Index (“SI”) wherein: • QA=concentration of compound A (first component) in ppm, acting alone, which produced an end point (MIC of Compound A). • Qa=concentration of compound A in ppm, in the mixture, which produced an end point. • QB=concentration of compound B (second component) in ppm, acting alone, which produced an end point (MIC of Compound B). • Qb=concentration of compound B in ppm, in the mixture, which produced an end point.
When the sum of Qa/QA and Qb/QB is greater than one, antagonism is indicated. […] The lower the SI, the greater the synergy shown by that particular mixture. The minimum inhibitory concentration (MIC) of a microbicide is the lowest concentration tested under a specific set of conditions that prevents the growth of added microorganisms.
Synergy tests were conducted using standard microtiter plate assays with media designed for optimal growth of the test microorganism. Soybean Casein Digest Broth (Tryptic Soy Broth, TSB medium) or minimal salt medium supplemented with 0.2% glucose and 0.1% yeast extract (M9GY medium) was used for testing bacteria; Potato Dextrose Broth (PDB medium) was used for testing yeast and mold. In this method, a wide range of combinations of microbicides was tested by conducting high resolution MIC assays in the presence of various concentrations of MI. High resolution MICs were determined by adding varying amounts of microbicide to one column of a microtitre plate and doing subsequent ten-fold dilutions using an automated liquid handling system to obtain a series of endpoints ranging from 2 ppm to 10,000 ppm active ingredient.

Cn1sccc1=O [2-methyl-3-isothiazolone, 2-methyl-4-isothiazolin-3-one]
MIC (Staphylococcus aureus, 6538, 24 h, read-out: Qa: end-point activity (MIC) of MI in the mixture (MI alone, QA, where Qb = 0)): 200 µg/mL
MIC (Staphylococcus aureus, 6538, 48 h, read-out: MIC of component acting alone (QA / QB)): 300 µg/mL
MIC (Staphylococcus aureus, 6538, 48 h, read-out: Qa: end-point activity (MIC) of MI in the mixture (MI alone, QA, where Qb = 0)): 300 µg/mL
MIC (Staphylococcus aureus, 6538, 72 h, read-out: MIC of component acting alone (QA / QB)): 300 µg/mL
SI (calculated synergy index) (Table 5, 48 hours): 1.00
SI (calculated synergy index) (Table 6, 24 hours): 1.00
